The values that follow come from patent US8846656B2, “Tetrahydropyrido-pyridine and tetrahydropyrido-pyrimidine compounds and use thereof as C5a receptor modulators” (Novartis AG, priority 2011, dated 2014).

Read-outs that look alike come from different tables or passages of the source.

For one assay, the target named is human C5aR (Homo sapiens (Human), UniProt P21730). In words: FLIPR assay: inhibition of C5a-mediated calcium mobilization. The class given is cell-based. The following applies: stable cell line over expressing human C5aR & Gα15, human C5a at EC50 (0.1-0.25 nM). The essentials:
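Compounds were added for 30 minutes at room temperature (1% DMSO) ahead of C5a stimulation. Before this, cells were dye-loaded for 1 h at 37° C: calcium 5 with 2.5 mM probenecid in HBSS, 20 mM HEPES, 0.1% BSA. Cells co-express human C5aR and Gα15; read-out is FLIPR Tetra calcium flux.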
In general terms: A change in cytosolic calcium serves as a functional read-out for many receptors and channels.

In another assay the test system is CD11b. The experiment in a line: Human whole blood CD11b up-regulation assay. The class given is cell-based. The following applies: 2 nM human C5a, CD15+ granulocytes, read-out: hCD11b IC50. The essentials:
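Flow cytometric read-out: CD11b median fluorescence intensity of CD15+ granulocytes, 10,000 events. Stimulus was 2 nM human C5a for 15 min at room temperature, following 10 min compound exposure in 1% DMSO in fresh sodium-heparin whole blood; staining done on ice and erythrocytes lysed.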

As a reminder, the IC50 is the midpoint of a concentration-inhibition curve.

Chain of human C5aR (P21730 whole entry): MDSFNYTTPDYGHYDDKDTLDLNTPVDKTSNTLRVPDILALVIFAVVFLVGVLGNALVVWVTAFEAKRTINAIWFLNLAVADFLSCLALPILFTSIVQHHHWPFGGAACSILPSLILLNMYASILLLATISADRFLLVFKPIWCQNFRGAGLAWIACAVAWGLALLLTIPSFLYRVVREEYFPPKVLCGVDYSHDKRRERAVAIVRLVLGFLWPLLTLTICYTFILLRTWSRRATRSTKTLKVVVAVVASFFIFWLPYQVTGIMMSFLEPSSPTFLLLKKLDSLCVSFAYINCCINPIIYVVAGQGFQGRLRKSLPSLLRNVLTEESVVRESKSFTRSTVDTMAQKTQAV

On to `Cc1ccc(C(C)C)cc1N1CCc2nc(-c3cccc4[nH]cc(C)c34)cc(C)c2C1` [Example 40-D, 6-(5-Isopropyl-2-methylphenyl)-4-methyl-2-(3-methyl-1H-indol-4-yl)-5,6,7,8-tetrahydro-1,6-naphthyridine], for which the IC50 on human C5aR is 132 nM; in the assay on CD11b, 264 nM.

Turning to `CCc1cccc(CC)c1-c1cc(C)c2c(n1)CCN(c1cc(C3CC3)ccc1C)C2` [Example 40-M, 6-(5-cyclopropyl-2-methylphenyl)-2-(2,6-diethylphenyl)-4-methyl-5,6,7,8-tetrahydro-1,6-naphthyridine], the IC50 on human C5aR came to 11 nM; in the assay with CD11b (Homo sapiens), 69 nM.

Take `[2H]C1([2H])c2c(C)cc(-c3cccc4[nH]cc(C)c34)nc2CCN1c1cc(C(C)C)ccc1C` [Example 40-S]: the half-maximal inhibitory concentration (IC50) on human C5aR stood at 78 nM; in the assay with CD11b (Homo sapiens), 793 nM.

On to `Cc1ccc(C(C)C)cc1N1CCc2nc(-c3c(C(C)C)ccc4[nH]ncc34)cc(C)c2C1` [Example 41-G, 2-(5-isopropyl-1H-indazol-4-yl)-6-(5-isopropyl-2-methylphenyl)-4-methyl-5,6,7,8-tetrahydro-1,6-naphthyridine], for which the IC50 was 3 nM on human C5aR and 70 nM with CD11b (Homo sapiens).

In the case of `CCc1cccc(CC)c1-c1cc(C)c2c(n1)CCN(c1cc(C(C)C)ccc1C)C2` [Example 41-J, 2-(2,6-diethylphenyl)-6-(5-isopropyl-2-methylphenyl)-4-methyl-5,6,7,8-tetrahydro-1,6-naphthyridine], the IC50 was 22 nM on human C5aR and 302 nM in the assay on CD11b (Homo sapiens).

Turning to `[2H]C1([2H])c2c(C)cc(-c3c(CC)cccc3CC)nc2CCN1c1c(Cl)c(C2CC2)nn1C` [Example 42-I, 6-(4-chloro-3-cyclopropyl-1-methyl-1H-pyrazol-5-yl)-2-(2,6-diethylphenyl)-4-methyl-5,6,7,8-tetrahydro(5,5-^2H2)-1,6-naphthyridine], the IC50 is 14 nM at human C5aR and 2120 nM with CD11b (Homo sapiens).

`[2H]C1([2H])c2c(C)cc(-c3cccc4[nH]cc(C)c34)nc2CCN1c1c(C)cccc1C` [Example 44-E, 6-(2,6-dimethylphenyl)-4-methyl-2-(3-methyl-1H-indol-4-yl)-5,6,7,8-(5,5-^2H2)tetrahydro-1,6-naphthyridine]: the concentration for half-maximal inhibition (IC50) at human C5aR is 38 nM; in the assay on CD11b (Homo sapiens) it was 188 nM.

In the case of `[2H]C1([2H])c2c(C)cc(-c3c(C)ccc4[nH]ncc34)nc2CCN1c1cc(OC)ccc1C` [Example 45, 6-(5-Methoxy-2-methylphenyl)-4-methyl-2-(5-methyl-1H-indazol-4-yl)-5,6,7,8-tetrahydro(5,5-^2H2)-1,6-naphthyridine], the IC50 on human C5aR was found to be 27 nM; with CD11b (Homo sapiens), 583 nM.

With `Cc1cc(-c2c(C(C)C)ccc3[nH]ncc23)nc2c1CN(c1cc(C3CC3)nn1C)CC2` [Example 46-A, 6-(3-Cyclopropyl-1-methyl-1H-pyrazol-5-yl)-2-(5-isopropyl-1H-indazol-4-yl)-4-methyl-5,6,7,8-tetrahydro-1,6-naphthyridine], the IC50 came out at 20 nM at human C5aR and 1990 nM in the assay with CD11b (Homo sapiens).

On to `Cc1cc(-c2c(C(C)C)ccc3[nH]ncc23)nc2c1CN(c1c(Cl)c(C3CC3)nn1C)CC2` [Example 46-B, 6-(4-Chloro-3-cyclopropyl-1-methyl-1H-pyrazol-5-yl)-2-(5-isopropyl-1H-indazol-4-yl)-4-methyl-5,6,7,8-tetrahydro-1,6-naphthyridine], for which the IC50 on human C5aR was determined as 42 nM; in the assay with CD11b (Homo sapiens), 224 nM.

As to `[2H]C1([2H])c2c(C)cc(-c3cccc4[nH]cc(C)c34)nc2CCN1c1c(C)nn(CC)c1C` [Example 47-B, 6-(1-Ethyl-3,5-dimethyl-1H-pyrazol-4-yl)-4-methyl-2-(3-methyl-1H-indol-4-yl)-5,6,7,8-tetrahydro(5,5-^2H2)-1,6-naphthyridine], the results for the IC50 at human C5aR and with CD11b (Homo sapiens) were 56 nM and 1420 nM, respectively.

As to `Cc1ccc(C(C)C)cc1N1CCc2nc(-c3cccc4[nH]cc(C)c34)nc(N3CCN(CC(N)=O)C[C@H]3C)c2C1` [Example 52-C, (R)-2-(4-(6-(5-Isopropyl-2-methylphenyl)-2-(3-methyl-1H-indol-4-yl)-5,6,7,8-tetrahydropyrido[4,3-d]pyrimidin-4-yl)-3-methylpiperazin-1-yl)acetamide], the IC50 at human C5aR came out at 1 nM; with CD11b (Homo sapiens) it was 178 nM.

For `CO[C@H]1CCN(c2nc(-c3c(C)ccc4[nH]nc(C)c34)nc3c2CN(c2c(Cl)c(C4CC4)nn2C)CC3)CC1(C)C` [Example 55-L, (S)-6-(4-Chloro-3-cyclopropyl-1-methyl-1H-pyrazol-5-yl)-2-(3,5-dimethyl-1H-indazol-4-yl)-4-(4-methoxy-3,3-dimethylpiperidin-1-yl)-5,6,7,8-tetrahydropyrido[4,3-d]pyrimidine], the half-maximal inhibitory concentration (IC50) at human C5aR was 3 nM; with CD11b (Homo sapiens), 36 nM.

Turning to `CO[C@@H]1CCN(c2nc(-c3c(C)ccc4[nH]nc(C)c34)nc3c2CN(c2c(Cl)c(C4CC4)nn2C)CC3)[C@H](C)C1` [Example 55-M, 6-(4-chloro-3-cyclopropyl-1-methyl-1H-pyrazol-5-yl)-2-(3,5-dimethyl-1H-indazol-4-yl)-4-((2R,4R)-4-methoxy-2-methylpiperidin-1-yl)-5,6,7,8-tetrahydropyrido[4,3-d]pyrimidine], the IC50 turned out to be 1 nM on human C5aR and 15 nM in the assay with CD11b (Homo sapiens).

Regarding `CO[C@@H]1CCN(c2nc(-c3c(C)ccc4[nH]nc(C)c34)nc3c2CN(c2c(Cl)c(C(F)(F)F)nn2C)CC3)CC1(C)C` [Example 55-N, (R)-6-(4-chloro-1-methyl-3-(trifluoromethyl)-1H-pyrazol-5-yl)-2-(3,5-dimethyl-1H-indazol-4-yl)-4-(4-methoxy-3,3-dimethylpiperidin-1-yl)-5,6,7,8-tetrahydropyrido[4,3-d]pyrimidine], the IC50 was 6 nM at human C5aR and 12 nM in the assay with CD11b (Homo sapiens).

Take `CO[C@H]1C[C@H]2CC[C@@H](C1)N2c1nc(-c2c(C)ccc3[nH]nc(C)c23)nc2c1CN(c1c(F)c(C3CC3)nn1C)CC2` [Example 56-B]: the IC50 on human C5aR was 2 nM; in the assay on CD11b (Homo sapiens) it was 45 nM.

On to `CO[C@H]1CCN(c2nc(-c3c(C)ccc4[nH]nc(C)c34)nc3c2CN(c2c(F)c(C4CC4)nn2C)CC3)CC1(C)C` [Example 56-C, (S)-6-(3-cyclopropyl-4-fluoro-1-methyl-1H-pyrazol-5-yl)-2-(3,5-dimethyl-1H-indazol-4-yl)-4-(4-methoxy-3,3-dimethylpiperidin-1-yl)-5,6,7,8-tetrahydropyrido[4,3-d]pyrimidine], for which the IC50 on human C5aR turned out to be 1 nM; in the assay with CD11b (Homo sapiens), 6 nM.

In the case of `CO[C@@H]1CCN(c2nc(-c3c(C)ccc4[nH]nc(C)c34)nc3c2CN(c2c(F)c(C(F)F)nn2C)CC3)CC1(C)C` [Example 56-F, (R)-6-(3-(difluoromethyl)-4-fluoro-1-methyl-1H-pyrazol-5-yl)-2-(3,5-dimethyl-1H-indazol-4-yl)-4-(4-methoxy-3,3-dimethylpiperidin-1-yl)-5,6,7,8-tetrahydropyrido[4,3-d]pyrimidine], the values for the half-inhibitory concentration (IC50) at human C5aR and with CD11b (Homo sapiens) were 1 nM and 11 nM, respectively.

As for `Cc1ccc(C(C)C)cc1N1CCc2nc(-c3c(C)ccc4[nH]nc(C)c34)nc(OCC(F)F)c2C1` [Example 63-E, 4-(2,2-difluoroethoxy)-2-(3,5-dimethyl-1H-indazol-4-yl)-6-(5-isopropyl-2-methylphenyl)-5,6,7,8-tetrahydropyrido[4,3-d]pyrimidine], the IC50 on human C5aR stood at 23 nM; in the assay with CD11b (Homo sapiens), 29 nM.

As to `CNCCOc1nc(-c2c(C)ccc3[nH]nc(C)c23)nc2c1CN(c1cc(C(C)C)ccc1C)CC2` [Example 63-G, 2-((2-(3,5-dimethyl-1H-indazol-4-yl)-6-(5-isopropyl-2-methylphenyl)-5,6,7,8-tetrahydropyrido[4,3-d]pyrimidin-4-yl)oxy)-N-methylethanamine], the IC50 on human C5aR is 31 nM; with CD11b (Homo sapiens) it was 197 nM.

On to `Cc1ccc(C(C)C)cc1N1CCc2nc(-c3c(C)ccc4[nH]nc(C)c34)nc(OCCN3CCOCC3)c2C1` [Example 63-I, 4-(2-((2-(3,5-dimethyl-1H-indazol-4-yl)-6-(5-isopropyl-2-methylphenyl)-5,6,7,8-tetrahydropyrido[4,3-d]pyrimidin-4-yl)oxy)ethyl)morpholine], for which the IC50 on human C5aR amounted to 32 nM; in the assay with CD11b (Homo sapiens) it was 60 nM.

`Cc1ccc(C(C)C)cc1N1CCc2nc(-c3c(C)ccc4[nH]nc(C)c34)nc(N3CC(N(C)C)C3)c2C1` [Example 65-A, 1-(2-(3,5-Dimethyl-1H-indazol-4-yl)-6-(5-isopropyl-2-methylphenyl)-5,6,7,8-tetrahydropyrido[4,3-d]pyrimidin-4-yl)-N,N-dimethylazetidin-3-amine]: the values for the half-inhibitory concentration (IC50) at human C5aR and with CD11b (Homo sapiens) were 1 nM and 30 nM, respectively.

In the case of `Cc1ccc(C(C)C)cc1N1CCc2nc(-c3c(C)ccc4[nH]nc(C)c34)nc(N3CC[C@@H](N(C)C)C3)c2C1` [Example 65-B, (R)-1-(2-(3,5-dimethyl-1H-indazol-4-yl)-6-(5-isopropyl-2-methylphenyl)-5,6,7,8-tetrahydropyrido[4,3-d]pyrimidin-4-yl)-N,N-dimethylpyrrolidin-3-amine], the 50% inhibitory concentration (IC50) was 2 nM at human C5aR and 16 nM in the assay on CD11b (Homo sapiens).

Take `Cc1ccc(C(C)C)cc1N1CCc2nc(-c3c(C)ccc4[nH]nc(C)c34)nc(N3CCOC[C@H]3C)c2C1` [Example 65-K, (R)-4-(2-(3,5-dimethyl-1H-indazol-4-yl)-6-(5-isopropyl-2-methylphenyl)-5,6,7,8-tetrahydropyrido[4,3-d]pyrimidin-4-yl)-3-methylmorpholine]: the 50% inhibitory concentration (IC50) came out at 2 nM on human C5aR and 26 nM with CD11b (Homo sapiens).
